Assay results from PubChem BioAssay AID2060492 (Molecular Pharmacology Branch, DTP, NCI, 2025).

Tested on: 695427-040-R-J1-PDC complex spheroids, viability percent T/C
Assay: Anticancer human tumor 695427-040-R-J1-PDC patient-derived colon adenocarcinoma cell line growth inhibition [GQUAD]
Conditions: for IC50: curve of first compound; for viability, T/C: stronger effect = lower value
Description: DNA G-quadruplex Stabilizer Agents in Combinations in Complex Spheroids
A high-throughput screen of multi-cell type tumor spheroids was designed to identify active combinations of DNA G-quadruplex stabilizer agents and targeted small molecules. Complex spheroids include a stromal component modeled by human endothelial cells (HUVEC) and fibroblasts modeled by human mesenchymal stem cells (MSCs). The concentration ranges selected for each drug and investigational agent were based upon clinically achievable concentrations if the clinical Cmax of the agent was known.
Compounds. The drugs and investigational agents: pidnarulex (CX-5461; NSC782164), APTO-253 (NSC789042), BRACO-19 (NSC847499), peposertib (NSC802822), ceralasertib (NSC780249), elimusertib (NSC800525), camonsertib (NSC841442), AZD-1390 (NSC803789), olaparib (NSC753686), talazoparib (NSC767125), ART-558 (NSC835418), sotorasib (NSC818433), MRTX-1133 (NSC836407), SN-38 (NSC673596), topotecan (NSC609699), etoposide (NSC141540), doxorubicin (NSC123127), gemcitabine (NSC613327), 5-fluorouracil (NSC19893), paclitaxel (NSC125973), vemurafenib (NSC761431), panobinostat (NSC761190), R-306465 (JNJ-16241199; NSC773264), adavosertib (NSC754352), TP-3654 (NSC805149), carboplatin (NSC241240), KSQ-4279 (NSC840948), and staurosporine (NSC755774) were obtained from the National Cancer Institute (NCI) Developmental Therapeutics Program Chemical Repository (34). The FDA-approved anticancer drug set is available from the NCI Developmental Therapeutics Program. […] The stock solutions were prepared in dimethyl sulfoxide (DMSO, Sigma-Aldrich, St. Louis, MO, cat. D2650) at 800-fold the tested concentration and stored at -70 degrees C prior to their use. All drugs and investigational agents were tested over a range starting from a high concentration at or near the clinical Cmax and decreasing in half-log increments. If the clinical Cmax for an agent had not been determined, the highest concentration tested was 10 microM.
2.3 Cell Culture. All cells were maintained in an incubator at 37 degrees C and 5% CO2 with 95% humidity. The PDC lines were cultured according to standard operating procedures established by the NCI PDMR. All PDCs were thawed and cultured in Matrigel-coated flasks prepared with a working solution of 1X Ham's F-12 nutrient mix, without supplementation (Invitrogen, cat. 11765054), 100 U/mL penicillin-streptomycin (Invitrogen, cat. 15140122), and 2.5% Matrigel (Corning Inc., cat. 354248) for the first three passages. The 857933-349-R-J2-PDC line was cultured in 6C/Colon 1B media, which includes advanced DMEM/F-12 (Thermo Fisher Scientific, cat. 12634028), 10 mM HEPES (Thermo Fisher Scientific, cat. 15630080), 1X GlutaMAX supplement (Thermo Fisher Scientific, cat. 35050061), 0.1 mg/mL primocin (InvivoGen, cat. ant-pm-2), 10% defined fetal bovine serum, heat inactivated (HyClone Laboratories Inc., cat. SH30070.03HI), 50% L-WRN conditioned media (ATCC, cat. CRL-3276), 1.25 mM N-Acetyl-L-cysteine (Sigma-Aldrich, cat. A9165), 10 mM nicotinamide (Sigma-Aldrich, cat. N0636), 1X B-27 supplement (Thermo Fisher Scientific, cat. 17504044), 1X N-2 supplement (Thermo Fisher Scientific, cat. 17502048), 10 microM Y-27632 dihydrochloride (Tocris Bioscience, cat. 1254), and 50 ng/mL human EGF recombinant protein (Thermo Fisher Scientific, cat. PHG0311). The 485176-168-R4-J1-PDC line was cultured in Panc media, which includes all 6C/Colon 1B media components plus 100 ng/mL human FGF-10 (Thermo Fisher Scientific, cat. 100-26), 500 nM SB-431542 (Selleckchem, cat. S1067), and gastrin (Tocris, cat. 3006).
[…]

[1] = second compound 0.0316 µM, first compound 0.0316 µM
[2] = second compound 0.0316 µM, first compound 0.1 µM
[3] = second compound 0.0316 µM, first compound 0.316 µM
[4] = second compound 0.0316 µM, first compound 1 µM
[5] = second compound 0.0316 µM, first compound 3.16 µM
[6] = second compound 0.0316 µM, first compound 10 µM
[7] = second compound 0.1 µM, first compound 0.0316 µM
[8] = second compound 0.1 µM, first compound 0.1 µM
[9] = second compound 0.1 µM, first compound 0.316 µM
[10] = second compound 0.1 µM, first compound 1 µM
[11] = second compound 0.1 µM, first compound 3.16 µM
[12] = second compound 0.1 µM, first compound 10 µM
[13] = second compound 0.316 µM, first compound 0.0316 µM
[14] = second compound 0.316 µM, first compound 0.1 µM
[15] = second compound 0.316 µM, first compound 0.316 µM
[16] = second compound 0.316 µM, first compound 1 µM
[17] = second compound 0.316 µM, first compound 3.16 µM
[18] = second compound 0.316 µM, first compound 10 µM
[19] = second compound 1 µM, first compound 0.0316 µM
[20] = second compound 1 µM, first compound 0.1 µM
[21] = second compound 1 µM, first compound 0.316 µM
[22] = second compound 1 µM, first compound 1 µM
[23] = second compound 1 µM, first compound 3.16 µM
[24] = second compound 1 µM, first compound 10 µM
[25] = second compound 3.16 µM, first compound 0.0316 µM
[26] = second compound 3.16 µM, first compound 0.1 µM
[27] = second compound 3.16 µM, first compound 0.316 µM
[28] = second compound 3.16 µM, first compound 1 µM
[29] = second compound 3.16 µM, first compound 3.16 µM
[30] = second compound 3.16 µM, first compound 10 µM
[31] = second compound 10 µM, first compound 0.0316 µM
[32] = second compound 10 µM, first compound 0.1 µM
[33] = second compound 10 µM, first compound 0.316 µM
[34] = second compound 10 µM, first compound 1 µM
[35] = second compound 10 µM, first compound 3.16 µM
[36] = second compound 10 µM, first compound 10 µM
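Also: spheroids exposed to compounds for seven days before readout.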

## CC(C)(O)C1CCC(Nc2ccc3ncc(-c4cccc(C(F)(F)F)c4)n3n2)CC1 (centres undefined) + CN(C)c1ccc(Nc2c3ccc(NC(=O)CCN4CCCC4)cc3nc3cc(NC(=O)CCN4CCCC4)ccc23)cc1
Second compound 0.0316 µM
  IC50: 1590 nM
Second compound 0.1 µM
  IC50: 1670 nM
Second compound 0.316 µM
  IC50: 1610 nM
Second compound 1 µM
  IC50: 1590 nM
Second compound 3.16 µM
  IC50: 1530 nM
Second compound 10 µM
  IC50: 1470 nM
[1]
  viability, T/C: 102%
[2]
  viability, T/C: 91.7%
[3]
  viability, T/C: 87.4%
[4]
  viability, T/C: 73.4%
[5]
  viability, T/C: 15.2%
[6]
  viability, T/C: 14.3%
[7]
  viability, T/C: 106%
[8]
  viability, T/C: 97%
[9]
  viability, T/C: 108%
[10]
  viability, T/C: 78.8%
[11]
  viability, T/C: 14.7%
[12]
  viability, T/C: 12.1%
[13]
  viability, T/C: 105%
[14]
  viability, T/C: 96.9%
[15]
  viability, T/C: 94.9%
[16]
  viability, T/C: 74%
[17]
  viability, T/C: 15.2%
[18]
  viability, T/C: 16.6%
[19]
  viability, T/C: 95%
[20]
  viability, T/C: 100%
[21]
  viability, T/C: 90.9%
[22]
  viability, T/C: 74.9%
[23]
  viability, T/C: 13%
[24]
  viability, T/C: 13.6%
[25]
  viability, T/C: 91.9%
[26]
  viability, T/C: 92.2%
[27]
  viability, T/C: 89.5%
[28]
  viability, T/C: 71.3%
[29]
  viability, T/C: 13.2%
[30]
  viability, T/C: 11.4%
[31]
  viability, T/C: 84.7%
[32]
  viability, T/C: 81.3%
[33]
  viability, T/C: 75.9%
[34]
  viability, T/C: 69.4%
[35]
  viability, T/C: 11.8%
[36]
  viability, T/C: 10%

## CC(C)n1c(=O)n(C)c2cnc3cc(F)c(-c4ccc(OCCCN5CCCCC5)nc4)cc3c21 + CN(C)c1ccc(Nc2c3ccc(NC(=O)CCN4CCCC4)cc3nc3cc(NC(=O)CCN4CCCC4)ccc23)cc1
Second compound 0.0316 µM
  IC50: > 10000 nM
Second compound 0.1 µM
  IC50: > 10000 nM
Second compound 0.316 µM
  IC50: > 10000 nM
Second compound 1 µM
  IC50: > 10000 nM
Second compound 3.16 µM
  IC50: > 10000 nM
Second compound 10 µM
  IC50: > 10000 nM
[1]
  viability, T/C: 113%
[2]
  viability, T/C: 96.1%
[3]
  viability, T/C: 111%
[4]
  viability, T/C: 101%
[5]
  viability, T/C: 104%
[6]
  viability, T/C: 66%
[7]
  viability, T/C: 107%
[8]
  viability, T/C: 97.3%
[9]
  viability, T/C: 106%
[10]
  viability, T/C: 102%
[11]
  viability, T/C: 110%
[12]
  viability, T/C: 62.5%
[13]
  viability, T/C: 108%
[14]
  viability, T/C: 98.5%
[15]
  viability, T/C: 102%
[16]
  viability, T/C: 106%
[17]
  viability, T/C: 100%
[18]
  viability, T/C: 67.4%
[19]
  viability, T/C: 101%
[20]
  viability, T/C: 102%
[21]
  viability, T/C: 110%
[22]
  viability, T/C: 105%
[23]
  viability, T/C: 100%
[24]
  viability, T/C: 62.9%
[25]
  viability, T/C: 86.4%
[26]
  viability, T/C: 101%
[27]
  viability, T/C: 94.4%
[28]
  viability, T/C: 98.8%
[29]
  viability, T/C: 95.5%
[30]
  viability, T/C: 68.1%
[31]
  viability, T/C: 89.4%
[32]
  viability, T/C: 92.2%
[33]
  viability, T/C: 93.3%
[34]
  viability, T/C: 89.3%
[35]
  viability, T/C: 93.7%
[36]
  viability, T/C: 59.4%
